Measured values: patent US12012404B2, “Pyrimidoheterocyclic compounds and application thereof” (D3 BIO (WUXI) CO., LTD., priority 2020, dated 2024)

Experiments:
[1] = Metabolic stability in hepatocytes, human; type: in vitro ADME
Description: Purpose of the assay: Metabolic stabilities of assay compounds in hepatocytes of CD-1 mice, SD rats, beagle dogs, cynomolgus monkeys, and human were assayed, respectively.
Procedure of the assay: Several 96-well sample precipitation plates were prepared and named T0, T15, T30, T60, T90, T120, TO-MC, T120-MC and blank substrates, respectively. The recovery medium and incubation medium were taken out in advance and placed in a 37° C. water bath for pre-heating. Cryopreserved hepatocytes were removed from the liquid nitrogen tank and immediately immersed in a 37° C. water bath (approximately 90 seconds). After the cryopreserved hepatocytes had thawed and loosened, they were poured into a centrifuge tube containing 40 mL of recovery medium, and the tube was gently inverted to allow the cells to be resuspended in the recovery medium. The cells were centrifuged at 100×g at room temperature for 5 min, and the supernatant was removed. The hepatocytes were resuspended in an appropriate volume of incubation medium, and the cell viability was calculated by Trypan Blue staining method. 198 μL of hepatocyte suspension (0.51×10^6 cells/mL) was added to the preheated incubation plate. For the culture medium control group, 198 μL of hepatocyte-free incubation medium was added to T0-MC and T120-MC incubation plate. All incubation plates were pre-incubated in a 37° C. incubator for 10 minutes. Then 2 μL of working solutions of the assay sample and the control compound were added, respectively, and the mixture was mixed well. The incubation plate was immediately put into the shaker in the incubator, and the reaction was initiated while starting the timer. For each time point of each compound, 2 duplicate samples were prepared. The incubation conditions were 37° C., saturated humidity, and 5% CO2. In the assay system, the final concentration of the assay sample was 1 μM, the final concentration of the control sample was 3 μM, the final concentration of hepatocytes was 0.5×10^6 cells/mL, and the final concentration of the total organic solvent was 0.96%, of which the final concentration of DMSO was 0.1%. At the end of the incubation for the corresponding time point, the incubation plate was taken out, and 25 μL of a mixture of compound and control compound with cells was added to the sample plate containing 125 μL of stop solution (200 ng/mL tolbutamide and labetalol in acetonitrile). For the Blank sample plate, 25 μL of hepatocyte-free incubation medium was added directly. After sealing, all sample plates were shaken on a shaker at 600 rpm for 10 minutes, and then centrifuged at 3220×g for 20 minutes. Supernatants of the assay sample and the control sample were diluted with ultrapure water at a ratio of 1:3. All samples were mixed well and analyzed by LC/MS/MS.

[2] = Stability assay in plasma, CD-1 mice; type: in vitro ADME; conditions: CD-1 mice plasma, 2 μM, 37° C.
Description: Purpose of the assay: Stabilities of the assay compounds in plasma of CD-1 mice and human were assayed, respectively.
Procedure of the assay: Cryopreserved plasma was thawed for 10-20 min. After the plasma was completely thawed, it was placed in a centrifuge and centrifuged at 3220×g for 5 min to remove any suspended matter and sediment in the plasma. 96-well incubation plates were prepared and named TO, T10, T30, T60, T120, respectively. 98 μL of blank plasmas of mouse, rat, canine, monkey and human were added to the corresponding incubation plates, then 2 μL of working solutions of the compound or the control compound were added to the corresponding plates in duplicate. All samples were incubated in a 37° C. water bath. The final incubation concentrations of the compound and the control compounds bisacodyl, enalapril maleate, procaine and probanthine were 2 μM, and the final organic phase content was 2.0%. At the end of incubation for each time point, the corresponding incubation plate was removed and 400 μL of a solution of 200 ng/mL of tolbutamide and labetalol in acetonitrile was added to each corresponding sample well to precipitate the protein. All sample plates were sealed and shaken well, and then centrifuged at 3220×g for 20 minutes. 50 μL of supernatant was taken out and diluted in 100 μL of ultrapure water. All samples were mixed well and then analyzed by LC/MS/MS.

[3] = Pharmacokinetics by oral administration and intravenous injection in SD rats; type: in vivo; conditions: for AUCu: AUC0-last × PPB(Unbound %); for Peak concentration, Cmax, u: Cmax × PPB(Unbound %); for Cmax: read-out: Peak concentration, Cmax; for Vd: SD, iv, 2 mg/kg
Description: 1) Assay on the Pharmacokinetics of the Assay Compounds by Oral Administration and Intravenous Injection in SD Rats
The assay compound was mixed with […] (10% hydroxypropyl-β-cyclodextrin) solution. The mixture was vortexed and sonicated to prepare a 1 mg/mL clear solution, which was filtered through a microporous membrane for later use. Male SD rats aged 7 to 10 weeks were selected, and administered candidate compound solutions intravenously or orally. Whole blood was collected for a certain period of time, and prepared to obtain plasma. Drug concentration was analyzed by LC-MS/MS method, and pharmacokinetic parameters were calculated by Phoenix WinNonlin software (Pharsight, USA).

[4] = Pharmacokinetics by oral administration and intravenous injection in CD mice; type: in vivo; conditions: for AUCu: AUC0-last × PPB(Unbound %); for Peak concentration, Cmax, u: Cmax × PPB(Unbound %); for Cmax: read-out: Peak concentration, Cmax; for Vd: CD, iv, 2.39 mg/kg
Description: 2) Assay on the Pharmacokinetics of the Assay Compounds by Oral Administration and Intravenous Injection in CD Mice
The assay compound was mixed with 5% dimethyl sulfoxide/95% (10% hydroxypropyl-β-cyclodextrin) solution. The mixture was vortexed and sonicated to prepare a 1 mg/mL clear solution, which was filtered through a microporous membrane for later use. Male CD mice aged 7 to 10 weeks were selected, and administered candidate compound solutions intravenously or orally. Whole blood was collected for a certain period of time, and prepared to obtain plasma. Drug concentration was analyzed by LC-MS/MS method, and pharmacokinetic parameters were calculated by Phoenix WinNonlin software (Pharsight, USA).

[5] = intravenous injection, 2.0 mg/kg
[6] = oral, 9.7 mg/kg (8B), 9.8 mg/kg (17)
[7] = intravenous injection, 2.39 mg/kg (17), 2.0 mg/kg (8B)
[8] = oral, 14.7 mg/kg (17), 10.3 mg/kg (8B)
[9] = male, rat, plasma, oral, 9.7 mg/kg (8B), 9.8 mg/kg (17)
[10] = male, mouse, plasma, oral, 14.7 mg/kg (17), 10.3 mg/kg (8B)

For `C=C(F)C(=O)N1CCN(c2nc(OCC3CCCN3C)nc3c2COC(c2c(F)c(N)cc(C)c2C(F)(F)F)C3)CC1CC#N.Cl` (single isomer, unassigned) [Compound 8B hydrochloride], the “CLint(hep)” value ([1]; 1 μM) was 6.9 μL/min/10^6, the “CLint(liver)” value ([1]; 1 μM) was 19.3 mL/min/kg and the T1/2 ([1]; 1 μM) was 3.325 h. For the same compound, the “Detection of assay compound content within 120 min” value [2] was 110%, the AUC0-last [3, 5] was 0.544 µM·h and the “Apparent volume of distribution, Vdss” value [3, 5] was 17.9 L/kg. The “Clearance rate, CL” value [3, 5] was 85.2 mL/min/kg, the “Half-life period, T1/2” value [3, 5] was 2.8 h and the AUCu [3, 5] was 0.0533 µM·h. For the same compound, the “Apparent volume of distribution, Vdss, u” value ([3]; intravenous injection, 2.0 mg/kg, Vdss/PPB(Unbound %)) was 203 L/kg, the AUC0-last [3, 6] was 1.211 µM·h and the “Bioavailability F” value [3, 6] was 44.5%. For the same compound, the “Time-to-peak, Tmax” value [3, 6] was 1.5 h, the AUCu [3, 6] was 0.119 µM·h and the “Peak concentration, Cmax, u” value [3, 6] was 21.3 nM. For the same compound, the Cmax [3, 6] was 218 nM, the AUC0-last [4, 7] was 1.297 µM·h and the “Apparent volume of distribution, Vdss” value [4, 7] was 3.9 L/kg. For the same compound, the “Clearance rate, CL” value [4, 7] was 40.6 mL/min/kg, the “Half-life period, T1/2” value [4, 7] was 1.7 h and the AUCu [4, 7] was 0.1556 µM·h. The “Apparent volume of distribution, Vdss, u” value ([4]; intravenous injection, 2.39 mg/kg (17), 2.0 mg/kg (8B), Vdss/PPB(Unbound %)) was 32.3 L/kg, the AUC0-last [4, 8] was 1.422 µM·h and the “Bioavailability F” value [4, 8] was 21.9%. For the same compound, the “Time-to-peak, Tmax” value [4, 8] was 1.0 h, the AUCu [4, 8] was 0.1706 µM·h and the “Peak concentration, Cmax, u” value [4, 8] was 51.7 nM. The Cmax [4, 8] was 431 nM.

In the case of `C=C(F)C(=O)N1CCN(c2nc(OC[C@@]34CCCN3C[C@H](F)C4)nc3c2COC(c2c(F)c(N)cc(C)c2C(F)(F)F)C3)C[C@@H]1CC#N` (some centres unmarked) [Compound 17], the “CLint(hep)” value ([1]; 1 μM) is reported as 13.9 μL/min/10^6, the half-life at 1 μM ([1]; cryopreserved hepatocytes) is reported as 1.66 h and the CLint scaled at 1 μM ([1]; cryopreserved hepatocytes, read-out: CLint(liver)) is reported as 38.7 mL/min/kg. The “Detection of assay compound content within 120 min” value [2] was 94%, the AUCu [3, 5] was 0.0313 µM·h and the Vd ([3]; male, rat, plasma, intravenous injection, 2.0 mg/kg, Vdss/PPB(Unbound %), read-out: Apparent volume of distribution, Vdss, u) was 221 L/kg. The Vd ([3]; male, rat, plasma, intravenous injection, 2.0 mg/kg, read-out: Apparent volume of distribution, Vdss) was 10.6 L/kg, the AUC(0-t) ([3]; male, rat, plasma, intravenous injection, 2.0 mg/kg) was 0.653 µM·h and the clearance ([3]; male, rat, plasma, intravenous injection, 2.0 mg/kg, read-out: Clearance rate, CL) was 71.5 mL/min/kg. The half-life ([3]; male, rat, plasma, intravenous injection, 2.0 mg/kg, read-out: Half-life period, T1/2 (converted)) was 1.9 h, the AUC(0-t) [3, 9] was 0.995 µM·h and the bioavailability ([3]; male, rat, plasma, oral, 9.7 mg/kg (8B), 9.8 mg/kg (17), read-out: Bioavailability F) was 30.5%. It also gave a Cmax [3, 9] of 220 nM, a Tmax ([3]; male, rat, plasma, oral, 9.7 mg/kg (8B), 9.8 mg/kg (17), read-out: Time-to-peak, Tmax) of 1.5 h and an AUCu [3, 6] of 0.0478 µM·h. The “Peak concentration, Cmax, u” value [3, 6] was 10.6 nM, the AUCu [4, 7] was 0.0202 µM·h and the Vd ([4]; male, mouse, plasma, intravenous injection, 2.39 mg/kg (17), 2.0 mg/kg (8B), Vdss/PPB(Unbound %), read-out: Apparent volume of distribution, Vdss, u) was 169 L/kg. The Vd ([4]; male, mouse, plasma, intravenous injection, 2.39 mg/kg (17), 2.0 mg/kg (8B), read-out: Apparent volume of distribution, Vdss) was 2.6 L/kg, the AUC(0-t) ([4]; male, mouse, plasma, intravenous injection, 2.39 mg/kg (17), 2.0 mg/kg (8B)) was 1.31 µM·h and the clearance ([4]; male, mouse, plasma, intravenous injection, 2.39 mg/kg (17), 2.0 mg/kg (8B), read-out: Clearance rate, CL) was 37.3 mL/min/kg. It also gave a half-life ([4]; male, mouse, plasma, intravenous injection, 2.39 mg/kg (17), 2.0 mg/kg (8B), read-out: Half-life period, T1/2 (converted)) of 1 h, an AUC(0-t) [4, 10] of 2.4 µM·h and a bioavailability ([4]; male, mouse, plasma, oral, 14.7 mg/kg (17), 10.3 mg/kg (8B), read-out: Bioavailability F) of 24.4%. It also gave a Cmax [4, 10] of 1460 nM, a Tmax ([4]; male, mouse, plasma, oral, 14.7 mg/kg (17), 10.3 mg/kg (8B), read-out: Time-to-peak, Tmax) of 0.25 h and an AUCu [4, 8] of 0.037 µM·h. The “Peak concentration, Cmax, u” value [4, 8] was 22.5 nM.
